Measurements from patent publication US20230084839A1, “ACTIVE AGENTS AGAINST CORONAVIRUS INFECTIONS AND DISEASES CAUSED THEREBY” (Eberhard Karls Universität Tübigen Medizinische Fakultät, priority 2020, published 2023).

Tests used:
SARS-CoV-2 [1] = assay type: cell-based; conditions: 48 hours post-infection, DAPI+ cell count
SARS-CoV-2 [2] = assay type: cell-based; conditions: Calu3 cells; for reduction of the cytopathic effect caused by viral infection: Data series 1, SARS-CoV-2, 10 and 1 μM, compared with mock and infected; for inhibitory effects on the virus-induced cytopathic effect: Data series 2, concentrations 10 μM-0.3125 μM

Row | Structure (SMILES) | positive effects on the total number or survival of Calu3 cells after SARS-CoV-2 infection (SARS-CoV-2 [1]) | reduction of the cytopathic effect caused by viral infection (SARS-CoV-2 [2]) | concentration from which positive effects on the total number or survival of Calu3 cells after SARS-CoV-2 infection occur (SARS-CoV-2 [1]) | inhibitory effects on the virus-induced cytopathic effect (SARS-CoV-2 [2])
1 | CCN(CCO)CCCC(C)Nc1ccnc2cc(Cl)ccc12 (stereo not drawn) [hydroxychloroquine, Hydroxychloroquine] | not observed | no inhibitory effects |  | 
2 | Cc1sc2c(c1C)C(c1ccc(Cl)cc1)=N[C@@H](CC(N)=O)c1nnc(C)n1-2 [CPI203] |  | significant reduction | approximately 20 nM | still evident even at the lowest concentrations
3 | COc1cc2c(cc1-c1c(C)noc1C)ncc1[nH]c(=O)n([C@H](C)c3ccccn3)c12 [IBET151] |  | significant reduction | approximately 20 nM | still evident even at the lowest concentrations
4 | CN(C)C(=O)c1cc2cnc(Nc3ccc(N4CCNCC4)cn3)nc2n1C1CCCC1 [ribociclib, Ribociclib] |  | no inhibitory effects |  | 
